For test [1], the target named is T1, σ2-receptor (Rattus norvegicus, UniProt Q5U3Y7).
T1 construct: the σ2-Receptorpreparation was prepared from rat liver; from tissue; host or cells: rat liver membrane homogenate
T1 sequence (Q5U3Y7 1-176): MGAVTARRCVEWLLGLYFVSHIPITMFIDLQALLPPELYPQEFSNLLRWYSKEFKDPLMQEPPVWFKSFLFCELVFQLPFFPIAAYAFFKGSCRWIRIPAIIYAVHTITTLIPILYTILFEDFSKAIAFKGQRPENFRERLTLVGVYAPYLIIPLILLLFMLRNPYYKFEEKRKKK
The test can be described thus: Sigma 2 (Version B) radioligand binding, [3H]-ditolylguanidine, rat liver preparation, σ1 sites masked with (+)-pentazocine. As to conditions: for pKi: [3H]-ditolylguanidine 3 nM. As for the experimental part: In brief the σ2-Receptorpreparation was prepared from rat liver. The livers were homogenized in 5 to 6 times of volume sucrose solution (0.32M) and homogenized. The homogenate was centrifuged at 2900 rpm, 4° C., 10 min). the supernatant was centrifuged again (31000×g, 4° C., 20 min). The pellet was resuspended in TRIS-buffer, incubated for 30 min at room temperature while stirring and centrifuged f (31000×g, 4° C., 20 min). The pellet was resuspended in cold TRIS-buffer pH 8 and homogenized. Then the protein content was measured (approx. 2 mg/mL) and the homogenate frozen at −80° C. for later use.
The radioligand used was [^3H]-Ditolylguanidin in TRIS-buffer pH 8. The σ1-receptor binding sites were masked through (+)-Pentazocin-solution in TRIS-Puffer pH 8.
In a volume of 200 μL 50 μL compound solution of varying concentration, 50 μL (+)-Pentazocin-solution (2 μM; resulting in 500 nM in the assay), 50 μL radioligand-solution (12 nM; resulting in 3 nM in the assay) and finally 50 μL of receptor preparation (approx. 2 mg/mL) were given into a well of a microplate equipped with a filter. The plate was closed and stirred for 2 h at room temperature and 500 rpm. Following that the solvents were removed by a harvester through the filter. After rinsing with H2O the filter was measured in a scintillation counter ([^3H]-protocol).

The target of test [2] is T2, σ1-receptor (Cavia porcellus, UniProt Q60492). Nature of the test: Sigma-1 (Version A) radioligand binding, [3H](+)-pentazocine, guinea pig brain membranes.
Description: Brain membrane preparation and binding assays for the σ1-receptor were performed as described (DeHaven-Hudkins et al., 1992) with some modifications. In brief, guinea pig brains were homogenized in 10 vols. […] The homogenate was centrifuged at 1000 g for 10 min at 4° C. and the supernatants collected and centrifuged again at 48000 g for 15 min at 4° C.
Each assay tube contained 10 μL of [^3H](+)-pentazocine (final concentration of 0.5 nM), 900 μL of the tissue suspension to a final assay volume of 1 mL and a final tissue concentration of approximately 30 mg tissue net weight/mL. […] All tubes were incubated at 37° C. for 150 min before termination of the reaction by rapid filtration over Schleicher & Schuell GF 3362 glass fibre filters [previously soaked in a solution of 0.5% polyethylenimine for at least 1 h]. […] Following addition of scintillation cocktail, the samples were allowed to equilibrate overnight. The amount of bound radioactivity was determined by liquid scintillation spectrometry using a Wallac Winspectral 1414 liquid scintillation counter.
The target of test [3] is T2, σ1-receptor. Nature of the test: Sigma 1 (Version B) radioligand binding, [3H]-(+)-pentazocine, guinea pig brain preparation. Also on record: the σ1-receptor preparation was prepared from guinea pig brain; from tissue; host or cells: guinea pig brain membrane homogenate. The method, then: In brief the σ1-receptor preparation was prepared from guinea pig brain. The brains were homogenized in 5 to 6 times of volume sucrose solution (0.32M) and homogenized. The homogenate was centrifuged at 2900 rpm, 4° C., 10 min). the supernatant was centrifuged again (23500×g, 4° C., 20 min). The pellet was resuspended in Tris-buffer, incubated for 30 min at room temperature and centrifuged f (23500×g, 4° C., 20 min). The pellet was resuspended in cold TRIS-buffer and homogenized. Then the protein content was measured (approx. 1.5 mg/mL) and the homogenate frozen at −80° C. for later use.
The radioligand used was […]-(+)-Pentazocin in TRIS-buffer. In a volume of 200 μL 50 μL TRIS-buffer, 50 μL compound solution of varying concentration, 50 μL radioligand-solution (8 nM; resulting in 2 nM in the assay) and finally 50 μL of receptor preparation (approx. 1.5 mg/mL) were given into a well of a microplate equipped with a filter. The plate was closed and stirred for 2.5 h at 37° C. and 500 rpm. Following that the solvents were removed by a harvester through the filter. After rinsing with H2O the filter was measured in a scintillation counter ([^3H]-protocol).

pKi: −log10 of the molar value.

T2 sequence (Q60492 whole entry): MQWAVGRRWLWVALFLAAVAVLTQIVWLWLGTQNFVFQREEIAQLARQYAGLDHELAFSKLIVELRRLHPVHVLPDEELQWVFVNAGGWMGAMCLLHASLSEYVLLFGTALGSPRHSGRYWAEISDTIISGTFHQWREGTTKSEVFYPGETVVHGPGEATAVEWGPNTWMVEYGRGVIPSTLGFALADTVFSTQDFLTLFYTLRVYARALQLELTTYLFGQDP

In the case of `COC1OC2(CCN(Cc3ccccc3)CC2)c2cnn(-c3ccccc3)c21` (stereo not drawn) [Example 3, 1-Benzyl-6′-methoxy-1′-phenyl-4′,6′-dihydro-1′H-spiro[piperidin-4,4′-furo[3,4-c]pyrazole]], the pKi in test [1] is 5.76; in test [2], 8.57.
Regarding `CCCCN1CCC2(CC1)OC(OC)c1c2cnn1-c1ccccc1` (stereo not drawn) [Example 4, 1-Butyl-6′-methoxy-1′-phenyl-4′,6′-dihydro-1′H-spiro[piperidin-4,4′-furo[3,4-c]pyrazole]], the pKi in test [1] was 5.98; in test [2], 8.92; in test [3] (version B, guinea pig brain, [3H]-(+)-pentazocine 2 nM, read-out: Binding σ1 Ki), 8.89.
Turning to `COC1Cc2c(cnn2-c2ccccc2)C2(CCN(C(C)C)CC2)O1` (stereo not drawn) [Example 8, 1-Isopropyl-6′-methoxy-1′-phenyl-6′,7′-dihydro-1′H-spiro[piperidin-4,4′ pyrano[4,3-c]pyrazole]], the values for the negative-log Ki (pKi) in test [1] and in test [2] were 5.49 and under 7.00, respectively.
On to `COC1Cc2c(cnn2-c2ccccc2)C2(CCN(CC(C)C)CC2)O1` (stereo not drawn) [Example 10, 1-Isobutyl-6′-methoxy-1′-phenyl-6′,7′-dihydro-1′H-spiro[piperidin-4,4′-pyrano[4,3-c]pyrazole]], for which the pKi in test [1] was 6.03; in test [2], 8.03.
Consider `COC1Cc2c(cnn2-c2ccccc2)C2(CCN(CCC(C)C)CC2)O1` (stereo not drawn) [Example 12, 1-Isopentyl-6′-methoxy-1′-phenyl-6′,7′-dihydro-1′H-spiro[piperidin-4,4′-pyrano[4,3-c]pyrazole]], for which the negative logarithm of the Ki (pKi) in test [1] was 6.50; in test [2], 8.60; in test [3], 9.01.
With `COC1Cc2c(cnn2-c2ccccc2)C2(CCN(CC=C(C)C)CC2)O1` (stereo not drawn) [Example 13, 6′-Methoxy-1-(3-methylbut-2-en-1-yl)-1′-phenyl-6′,7′-dihydro-1′H-spiro[piperidin-4,4′ pyrano[4,3-c]pyrazole]], the inhibition at 1 µM in test [1] (compound at 1 μM) came out at 3%. Besides, the negative-log Ki (pKi) in test [2] is 8.14; in test [3], 8.79.
Consider `CCCCCCCCN1CCC2(CC1)OC(OC)Cc1c2cnn1-c1ccccc1` (stereo not drawn) [Example 14, 6′-Methoxy-1-octyl-1′-phenyl-6′,7′-dihydro-1′H-spiro[piperidin-4,4′-pyrano[4,3-c]pyrazole]], for which the pKi in test [1] was 6.68; in test [2] it was 7.39; in test [3], 8.54.
In the same order, the values of `COC1Cc2c(cnn2-c2ccccc2)C2(CCN(CC3CCCCC3)CC2)O1` (stereo not drawn) [Example 15, 1-(Cyclohexan-1-ylmethyl)-6′-methoxy-1′-phenyl-6′,7′-dihydro-1′H-spiro[piperidin-4,4′-pyrano[4,3-c]pyrazole]] are 6.96, 8.10 and 9.26.
`COC1Cc2c(cnn2-c2ccccc2)C2(CCN(CCCCc3ccccc3)CC2)O1` (stereo not drawn) [Example 18, 6′-Methoxy-1′-phenyl-1-(4-phenylbutyl)-6′,7′-dihydro-1′H-spiro[piperidin-4,4′-pyrano[4,3-c]pyrazole]]: the values for the pKi in test [1], in test [2] and in test [3] were 6.37, 7.80 and 8.49, respectively.
Consider `COC1Cc2c(cnn2-c2ccccc2)C2(CCN(Cc3ccco3)CC2)O1` (stereo not drawn) [Example 19, 1-(Furan-2-ylmethyl)-6′-methoxy-1′-phenyl-6′,7′-dihydro-1′H-spiro[piperidin-4,4′-pyrano[4,3-c]pyrazole]], for which the pKi in test [1] is 5.28; in test [2] it was 8.42; in test [3] it was 8.66.
In the case of `COC1Cc2c(cnn2-c2ccccc2)C2(CCN(Cc3ccc(F)cc3)CC2)O1` (stereo not drawn) [Example 21, 1-(4-Fluorbenzyl)-6′-methoxy-1′-phenyl-6′,7′-dihydro-1′H-spiro[piperidin-4,4′-pyrano[4,3-c]pyrazole]], the negative logarithm of the Ki (pKi) in test [1] was 6.16; in test [2], 8.11; in test [3], 9.03.

These data come from US20100197714A1, “SPIRO-PYRANO-PYRAZOLE DERIVATIVES” (priority 2007, published 2010).
